Source: patent US5780434A, “Composition for oral administration of peptides” (Ferring B.V., priority 1993, dated 1998)
Each block holds one compound with its values, some of them ahead of it.

What was measured:
[1] = in the presence of aprotinin, rat; cited from earlier work
[2] = Degradation of peptide in human gastro-intestinal juice (HPLC); conditions: intestinal juice from the ileum, pH 6.5, increasing amounts of aprotinin
Procedure: (§1) Human gastro-intestinal juice was obtained from healthy male volunteers who had been fasting for 8 h. A tube was introduced intranasally after local anaesthesia with xylocaine, and gastric juice was collected. Thereafter one standardized meal was given 1 h before sampling of duodenal and distal jejunum juice and another the next morning before the collection of distal ileal juice. After centrifugation the gastric and intestinal juices were frozen in aliquots of 1 ml and stored at -20° C.
(§2) The peptide or peptide analog (10 μl of 10 mM peptide in 0.9% aqueous NaCl) was added to 190 μl of undiluted juice at 37° C. Aliquots of 25 μl were withdrawn at intervals and mixed with 100 μl acetone to stop the reaction. After centrifugation for 10 min at 10,000 g, 10 μl of the supernatant was analyzed by reversed phase HPLC. The effects of increasing amounts of aprotinin were examined under the above conditions in intestinal juice from the ileum.
(§3) Analysis was carried out in a Varian 5000 HPLC analyzer equipped with a UV-detector (220 nm). Column Bondapak TM C18 (3.9×300 mm), eluant MeOH/0.025M NH4 Ac (isocratic conditions), flow rate 1 ml/min.

[3] = pH 6.5
Procedure: as §1, §2, §3

[4] = human, in vivo
Procedure: Experiments with healthy volunteers. After having fasted for 8 hours six healthy male volunteers were intubated (cf. example 1) with quadruple lumen flexible PVC tubes. The open end of the tube was positioned in the duodenum close to the pylorus; correct positioning was verified fluoroscopically. DDAVP acetate (0.4 mg in 2 ml 0.9% aqueous sodium chloride) was applied at the start and the tube was rinsed with 2 ml 0.9% aqueous sodium chloride. Perfusion with aprotinin (ANTAGOSAN™, Hoechst, Germany; aqueous solution, 10,000 kallikrein inactivator units/ml) started immediately after application of DDAVP and continued for 4 h at a rate of 5 ml/min. A standard breakfast was given 5-10 min after application of DDAVP, and a standardized meal 4 h later. From 2 h after start onwards the volunteers were given 100 ml/h water orally. Each volunteer participated in three sessions.
Bioavailability was determined for each subject in a separate session by intravenous bolus injection of DDAVP (4 μg); blood samples were drawn before and up to 8 h after drug application and analyzed for DDAVP as described above.

Compound: (1-deamino-4-valine)-8-D-arginine-vasopressin
Urine retention after gastric administration of an aqueous solution [1]: moderately enhanced

Inhibition of DDAVP degradation by aprotinin [2]: concentration-dependent inhibition
Compound: aprotinin

DDAVP degraded to (after 35 min) [3]: about 50%
Increase of DDAVP absorption in presence of aprotinin [4]: about five-fold
DDAVP absorption (bioavailability) ([4]; male, 0.4 mg): about 0.1 % by weight
Compound: NC(=O)CC[C@@H]1NC(=O)[C@H](Cc2ccccc2)NC(=O)[C@H](Cc2ccc(O)cc2)NC(=O)CCSSC[C@@H](C(=O)N2CCC[C@H]2C(=O)N[C@H](CCCN=C(N)N)C(=O)NCC(N)=O)NC(=O)[C@H](CC(N)=O)NC1=O [DDAVP, desmopressin]
